According to US10668156B2, “Active-ingredient-containing solid dispersions based on diethylaminoethyl methacrylate copolymers” (BASF SE, priority 2012, dated 2020):

Experiments:
Type in all cases: physicochemical
[1] = Film method: loading capacity of active ingredient in polymer films, microscopic assessment after storage; conditions: for Loading capacity, active ingredients in %, Films with Kollicoat ® Smartseal + 6 mol partially neutralized: 6 mol % of basic groups neutralized with adipic acid; for Loading capacity, active ingredients in %, Films with Kollicoat ® Smartseal + 6 mol partially neutralized / Loading capacity, active ingredients in %, Films with Kollicoat ® Smartseal + 8 mol partially neutralized / Loading capacity, active ingredients in %, Films with Eudragit ® EPO / Loading capacity, active ingredients in %, Films with Kollicoat ® Smartseal freeze-dried: no crystals in film, storage 7 days 23° C./54% relative humidity; for Loading capacity, active ingredients in %, Films with Kollicoat ® Smartseal + 8 mol partially neutralized: 8 mol % of basic groups neutralized with succinic acid; for Loading capacity, active ingredients in %, Films with Eudragit ® EPO / Loading capacity, active ingredients in %, Films with Kollicoat ® Smartseal freeze-dried: molecularly disperse dissolved active ingredient
Text: The film method is a process in which a clear solution of the polymer and of the active ingredient is molded to give a thin film which solidifies as a result of the solvent evaporating. Clear solution means that no clouding is evident upon normal inspection. This method is suitable in particular as a screening method in order to determine the loading limits of the solid dispersions in a simple manner. For the screening process, the film can be produced by pouring the solution with the corresponding concentrations of polymer and active ingredient onto glass plates and drawing it out with the help of a blade to give the film. Usually, the films are drawn to layer thicknesses of from 50 to 200 μm. The resulting films are then dried by drawing off the solvent, and solidified as a result. In one or more embodiments, the solvent is removed in vacuo, for example at 1 hPa to 100 hPa. […] Additionally, the removal of the solvent can be effected by the action of temperature.
For the screening process, the films produced are then stored under controlled climatic conditions for defined periods of time—generally 14 days.
The films can then be evaluated by microscope at 40 times magnification. Clear films are a sign of amorphous systems. Cloudy films point to relatively large crystalline fractions.
To prepare the polymer/active ingredient mixture, the substances were weighed in the respective amounts into a 50 ml penicillin bottle.
All of the mixtures were stirred for 24 h on a magnetic stirrer until the constituents had dissolved. After visually assessing the solution (clear solution), the solvent was drawn out on a glass plate using a 120 μm blade. The resulting film was dried for 0.5 h at room temperature of 22+/−2° C. in a fume cupboard and then for 0.5 h in a vacuum drying cabinet at 50° C. and […]. […] Clear films (without active ingredient crystals) indicate molecularly disperse solutions and cloudy films (with active ingredient crystals) indicate crystalline systems.

[2] = Spray-drying: loading capacity assessed by DSC; conditions: active ingredient in Kollicoat ® Smartseal
Description: (§1) To prepare the polymer/active ingredient mixture, the substances were weighed into an appropriate storage vessel. The corresponding amount of solvent was added and the mixture was stirred until the polymer and the active ingredient had completely dissolved. […] The solids fraction of the spraying solution was 20% by weight for all experiments. The spray-drying was carried out on a laboratory scale.
(§2) The liquid to be dried was atomized using a two-material nozzle. A heated gas (here nitrogen) flowing concurrently dries the distributed drops to give solid particles with particle diameters in the range 5-20 μm. In the entry area of the spray drier, the drying gas is supplied tangentially. The dry product particles are separated off in a cyclone.

[3] = Spray-drying: loading capacity assessed by XRD; conditions: active ingredient in Kollicoat ® Smartseal
Description: as §1, §2
Loading capacity of Kollicoat® Smartseal with different active ingredients in the spray-drying. Spray-drying experiments carried out on the laboratory scale: • 1. Itraconazole: Kollicoat® Smartseal with 40+50% (w/w) itraconazole • 2. Fenofibrate: Kollicoat® Smartseal with 40+50% (w/w) fenofibrate • 3.

Loading capacity, active ingredients in %, Films with Kollicoat ® Smartseal + 6 mol partially neutralized [1] | Loading capacity, active ingredients in %, Films with Kollicoat ® Smartseal + 8 mol partially neutralized [1] | Loading capacity, active ingredients in %, Films with Eudragit ® EPO [1] | Loading capacity, active ingredients in %, Films with Kollicoat ® Smartseal freeze-dried [1] | Loading spray-drying [DSC, %] [2] | Loading spray-drying [XRD, %] [3] | Loading film method ([1]; active ingredient in Kollicoat ® Smartseal) | SMILES
30% | 30% | <10% | 20% | – | – | – | NC(=O)N1c2ccccc2C=Cc2ccccc21 [Carbamazepine]
35% | 35% | 20% | 35% | – | – | – | Clc1ccccc1C(c1ccccc1)(c1ccccc1)n1ccnc1 [Clotrimazole]
– | – | 30% | – | 50% | 50% | 50% | COc1ccc2cc([C@H](C)C(=O)O)ccc2c1 [Naproxen]

The remaining lines, values behind:

SMILES | Loading capacity, active ingredients in %, Films with Kollicoat ® Smartseal + 6 mol partially neutralized [1] | Loading capacity, active ingredients in %, Films with Kollicoat ® Smartseal + 8 mol partially neutralized [1] | Loading capacity, active ingredients in %, Films with Eudragit ® EPO [1] | Loading capacity, active ingredients in %, Films with Kollicoat ® Smartseal freeze-dried [1] | Loading spray-drying [DSC, %] [2] | Loading spray-drying [XRD, %] [3] | Loading film method ([1]; active ingredient in Kollicoat ® Smartseal)
C#C[C@]1(O)CC[C@H]2[C@@H]3CCC4=Cc5oncc5C[C@]4(C)[C@H]3CC[C@@]21C [Danazol] | 50% | 50% | <10% | 50% | – | – | –
CC(C)Cc1ccc(C(C)C(=O)O)cc1 (stereo not drawn) [Ibuprofen 50, Ibuprofen] | 30% | 30% | – | – | – | – | –
